What all share (format): cell-based
In one assay the test system is Target C CJ mRNA. The assay can be described thus: Gene panel canonical junction qPCR assay, Target C. Conditions: decrease in CJ mRNA levels, RT-qPCR. The gist of the method: (§1)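 A673 or K562 cells treated 24 h at 37 °C with 11-point 3-fold dilutions (top 10 uM final, DMSO ≤0.25%); lysates analysed by one-step RT-qPCR for canonical-junction mRNA. ΔCt vs GAPDH, GUSB or PPIA housekeeper, normalised to DMSO (ΔΔCt), converted to RQ via 2^(−ΔΔCt) and percentage response.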
In general terms: Quantitative PCR measures a nucleic acid by following its amplification.

For a further assay, the system named is HTT CJ mRNA. The assay can be described thus: Gene panel canonical junction qPCR assay, HTT. The conditions noted are these: decrease in CJ mRNA levels, RT-qPCR. The gist of the method: as §1
In another assay the test system is SMN2 CJ mRNA. In words: Gene panel canonical junction qPCR assay, SMN2. Conditions: decrease in CJ mRNA levels, RT-qPCR. In a few lines:
as §1

The test system of a further assay is HTT mRNA. The assay can be described thus: RT-qPCR splicing assay for HTT mRNA isoforms (canonical junction CJ and alternative junction AJ). The conditions noted are these: A673 or K562 cell line, 24 hours compound treatment; for IC50: decrease in CJ mRNA; for AC50: increase in AJ mRNA. In a few lines: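 A673 (DMEM, 10% FBS) or K562 (IMDM, 10% FBS) cells were treated 24 h at 37 °C with an 11-point 3-fold series, top dose 10 uM, DMSO ≤0.25%. In lysates, HTT CJ and AJ isoforms were quantified by one-step RT-qPCR and normalized to PPIA (A673) or GAPDH/GUSB (K562), at least in duplicate.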

One may read the IC50 as the concentration needed to halve the response being measured. A high value points to weaker potency in that assay. For orientation: AC50 means the midpoint of the concentration-response curve, whichever way the signal moves.

Regarding `Cc1cn(-c2ccc3c(c2)COc2nc(N(C)[C@@H]4C[C@H]5CC[C@@H](C4)N5)ccc2-3)cn1` [Compound 164], the IC50 with Target C CJ mRNA was 100 to 1000 nM; in the assay on HTT CJ mRNA it was < 100 nM; in the assay with SMN2 CJ mRNA, < 100 nM; with HTT mRNA it was < 100 nM. Further, in the assay on HTT mRNA, the AC50 is < 100 nM.
In the case of `COc1cc(-c2ccc3c(c2)COc2nc(N(C)[C@@H]4C[C@H]5CC[C@@H](C4)N5)ccc2-3)cnn1` [Compound 159], the IC50 in the assay on Target C CJ mRNA, with HTT CJ mRNA, in the assay on SMN2 CJ mRNA and with HTT mRNA was < 100 nM each time. In the assay with HTT mRNA, the AC50 was < 100 nM.
Consider `Cc1ncc(-c2ccc3c(c2)COc2nc(N(C)[C@@H]4C[C@H]5CC[C@@H](C4)N5)ccc2-3)o1` [Compound 155], for which the IC50 in the assay with Target C CJ mRNA was 100 to 1000 nM; with HTT CJ mRNA, < 100 nM; in the assay with SMN2 CJ mRNA, < 100 nM; in the assay on HTT mRNA it was < 100 nM. Besides, the AC50 with HTT mRNA is < 100 nM.
Consider `CN(C)[C@H]1[C@@H]2CN(c3ccc4c(n3)OCc3cc(-n5cccn5)ccc3-4)C[C@@H]21` [Compound 197], for which the IC50 was > 10000 nM in the assay on Target C CJ mRNA, 1000 to 10000 nM in the assay with HTT CJ mRNA, > 10000 nM in the assay with SMN2 CJ mRNA and 1000 to 10000 nM in the assay on HTT mRNA. In addition, in the assay on HTT mRNA, the AC50 was > 10000 nM.
For the compound `CN(c1ccc2c(n1)OCc1cc(-n3cccn3)ccc1-2)[C@H]1C[C@]2(C)CC[C@](C)(C1)N2` [Compound 180], the IC50 with Target C CJ mRNA is 100 to 1000 nM; in the assay on HTT CJ mRNA it was < 100 nM; with SMN2 CJ mRNA, < 100 nM; in the assay on HTT mRNA, < 100 nM. Moreover, the AC50 in the assay with HTT mRNA is < 100 nM.
For the compound `c1cnn(-c2ccc3c(c2)COc2nc(N4CCC5(CCCNC5)C4)ccc2-3)c1` (stereo not shown) [Compound 183], the IC50 is > 10000 nM in the assay on Target C CJ mRNA, > 10000 nM in the assay with HTT CJ mRNA, 100 to 1000 nM in the assay with SMN2 CJ mRNA and > 10000 nM with HTT mRNA. Moreover, in the assay with HTT mRNA, the AC50 is > 10000 nM.
`c1cnn(-c2ccc3c(c2)COc2nc(O[C@@H]4C[C@H]5CC[C@@H](C4)N5)ccc2-3)c1` [Compound 188]: the IC50 in the assay on Target C CJ mRNA fell in the range of 1000 to 10000 nM; in the assay on HTT CJ mRNA it was 100 to 1000 nM; in the assay with SMN2 CJ mRNA, 100 to 1000 nM; with HTT mRNA it was 100 to 1000 nM. The compound further gave an AC50 in the assay with HTT mRNA of 100 to 1000 nM.
Consider `c1cnn(-c2ccc3c(c2)COc2nc(S[C@@H]4C[C@H]5CC[C@@H](C4)N5)ccc2-3)c1` [Compound 193], for which the IC50 with Target C CJ mRNA was > 10000 nM; in the assay with HTT CJ mRNA, 1000 to 10000 nM; with SMN2 CJ mRNA, > 10000 nM; with HTT mRNA, > 10000 nM. The AC50 with HTT mRNA is > 10000 nM.
Take `CN1C[C@@H]2[C@H](C1)[C@H]2N(C)c1ccc2c(n1)OCc1cc(-n3cccn3)ccc1-2` [Compound 196]: the IC50 in the assay on Target C CJ mRNA, with HTT CJ mRNA, in the assay with SMN2 CJ mRNA and in the assay with HTT mRNA was > 10000 nM throughout. Also, the AC50 in the assay on HTT mRNA is > 10000 nM.
On to `CCN(c1ccc2c(n1)OCc1cc(-n3cccn3)ccc1-2)C1CC(C)(C)NC(C)(C)C1` [Compound 189], for which the IC50 in the assay with Target C CJ mRNA is > 10000 nM; with HTT CJ mRNA it was > 10000 nM; in the assay with SMN2 CJ mRNA, 1000 to 10000 nM; in the assay on HTT mRNA it was > 10000 nM. In the assay with HTT mRNA, this compound had an AC50 of 1000 to 10000 nM.
Take `CC1(C)CC(Nc2ccc3c(n2)CCOc2cc(-n4cccn4)ccc2-3)CC(C)(C)N1` [Compound 137, 13-(pyrazol-1-yl)-N-(2,2,6,6-tetramethylpiperidin-4-yl)-10-oxa-6-azatricyclo [9.4.0.0^[2,7]]pentadeca-1(11),2(7),3,5,12,14-hexaen-5-amine]: the concentration for half-maximal inhibition (IC50) in the assay with Target C CJ mRNA was 1000 to 10000 nM; in the assay with HTT CJ mRNA it was > 10000 nM; with SMN2 CJ mRNA it was > 10000 nM; in the assay on HTT mRNA, 1000 to 10000 nM. Besides, the AC50 with HTT mRNA is 1000 to 10000 nM.
For the compound `c1cnn(-c2ccc3c(c2)COc2nc(N(C4CCNCC4)C4CC4)ccc2-3)c1` [Compound 202], the IC50 was > 10000 nM in the assay with Target C CJ mRNA, 1000 to 10000 nM in the assay with HTT CJ mRNA, > 10000 nM in the assay with SMN2 CJ mRNA and 1000 to 10000 nM with HTT mRNA. Also, in the assay with HTT mRNA, the AC50 is > 10000 nM.
Regarding `c1cnn(-c2ccc3c(c2)COc2nc(N4CCCC5(CCNC5)C4)ccc2-3)c1` (stereo not shown) [Compound 192], the IC50 with Target C CJ mRNA, in the assay on HTT CJ mRNA, in the assay with SMN2 CJ mRNA and in the assay on HTT mRNA was > 10000 nM each time. Moreover, the AC50 in the assay on HTT mRNA is > 10000 nM.
For the compound `[2H]C([2H])([2H])N(c1ccc2c(n1)OCc1cc(-n3cccn3)ccc1-2)[C@@H]1C[C@H]2CCC[C@@H](C1)N2` [Compound 200], the IC50 with Target C CJ mRNA is 100 to 1000 nM; in the assay on HTT CJ mRNA, < 100 nM; with SMN2 CJ mRNA, < 100 nM; in the assay with HTT mRNA it was < 100 nM. The AC50 in the assay with HTT mRNA was < 100 nM.
As for `[2H]C([2H])([2H])N(c1ccc2c(n1)OCc1cc(-n3cccn3)ccc1-2)[C@@H]1C[C@H]2CC[C@@H](C1)N2` [Compound 201], the IC50 was 100 to 1000 nM with Target C CJ mRNA, 100 to 1000 nM in the assay with HTT CJ mRNA, < 100 nM in the assay on SMN2 CJ mRNA and 100 to 1000 nM in the assay with HTT mRNA. The compound further came in with an AC50 in the assay on HTT mRNA of 100 to 1000 nM.
For the compound `Cc1[nH]ncc1-c1ccc2c(c1)COc1nc(N(C)[C@@H]3C[C@H]4CC[C@@H](C3)N4)ccc1-2` [Compound 154], the IC50 with Target C CJ mRNA, with HTT CJ mRNA, in the assay on SMN2 CJ mRNA and with HTT mRNA was 100 to 1000 nM throughout. In the assay with HTT mRNA, this compound came in with an AC50 of 100 to 1000 nM.
Consider `CN(c1ccc2c(n1)OCCc1cc(-c3cn[nH]c3)ccc1-2)[C@@H]1C[C@H]2CC[C@@H](C1)N2` [Compound 146], for which the IC50 in the assay on Target C CJ mRNA is > 10000 nM; in the assay on HTT CJ mRNA, 1000 to 10000 nM; in the assay with SMN2 CJ mRNA, > 10000 nM; in the assay with HTT mRNA it was 1000 to 10000 nM. In addition, the AC50 in the assay on HTT mRNA was 1000 to 10000 nM.
For `c1cnn(-c2ccc3c(c2)OCCc2nc(N[C@@H]4C[C@H]5CC[C@@H](C4)N5)ccc2-3)c1` [Compound 136, N-[(1R,3S,5S)-8-azabicyclo[3.2.1]octan-3-yl]-13-(pyrazol-1-yl)-10-oxa-6-azatricyclo[9.4.0.0^[2,7]]pentadeca-1(11),2(7),3,5,12,14-hexaen-5-amine], the IC50 in the assay on Target C CJ mRNA, in the assay on HTT CJ mRNA, in the assay with SMN2 CJ mRNA and in the assay on HTT mRNA was > 10000 nM in each case. The AC50 in the assay with HTT mRNA was > 10000 nM.
In the case of `CC1(C)CC(Nc2ccc3c(n2)OCc2cc(-n4cccn4)ccc2-3)CC(C)(C)N1` [Compound 165], the IC50 is 100 to 1000 nM in the assay on Target C CJ mRNA, 100 to 1000 nM in the assay on HTT CJ mRNA, < 100 nM in the assay with SMN2 CJ mRNA and 100 to 1000 nM in the assay on HTT mRNA. Further, in the assay on HTT mRNA, the AC50 fell in the range of 100 to 1000 nM.
`c1cnn(-c2ccc3c(c2)COc2nc(N[C@@H]4C[C@H]5CCC[C@@H](C4)N5)ccc2-3)c1` [Compound 190]: the IC50 with Target C CJ mRNA is 100 to 1000 nM; in the assay on HTT CJ mRNA, < 100 nM; with SMN2 CJ mRNA it was < 100 nM; in the assay with HTT mRNA it was < 100 nM. Besides, the AC50 in the assay with HTT mRNA is 100 to 1000 nM.
Take `CN(c1ccc2c(n1)OCc1cc(-c3cnc(=O)[nH]c3)ccc1-2)[C@@H]1C[C@H]2CC[C@@H](C1)N2` [Compound 161]: the IC50 with Target C CJ mRNA, in the assay with HTT CJ mRNA, in the assay on SMN2 CJ mRNA and in the assay with HTT mRNA was > 10000 nM in each case. Moreover, the AC50 in the assay with HTT mRNA is > 10000 nM.
With `[2H]C([2H])([2H])N(c1ccc2c(n1)OCc1cc(-n3cccn3)ccc1-2)C1CC(C)(C)NC(C)(C)C1` [Compound 199], the concentration for half-maximal inhibition (IC50) in the assay with Target C CJ mRNA is > 10000 nM; with HTT CJ mRNA, 1000 to 10000 nM; in the assay with SMN2 CJ mRNA it was 1000 to 10000 nM; with HTT mRNA, 1000 to 10000 nM. The compound further registered an AC50 in the assay on HTT mRNA of 1000 to 10000 nM.
Turning to `CN(c1ccc2c(n1)OCc1cc(-c3cn[nH]c3)ccc1-2)C1CC(C)(C)NC(C)(C)C1` [Compound 147, N,2,2,6,6-pentamethyl-N-[8-(1H-pyrazol-4-yl)-6H-isochromeno[3,4-b]pyridin-3-yl]piperidin-4-amine], the IC50 with Target C CJ mRNA is 100 to 1000 nM; in the assay with HTT CJ mRNA, 100 to 1000 nM; in the assay with SMN2 CJ mRNA, > 10000 nM; in the assay with HTT mRNA, 100 to 1000 nM. This compound registered an AC50 in the assay with HTT mRNA of 100 to 1000 nM.

The record behind these values is patent US20230148184A1, “COMPOUNDS AND METHODS FOR MODULATING SPLICING” (REMIX THERAPEUTICS INC., priority 2020, published 2023).
